According to patent US7923442B2, “Glutathione peroxidase mimetics and uses thereof” (UTI Limited Partnership, priority 2005, dated 2011):

Key:
[1] = Catalytic activity of GPx mimetics: reduction of hydrogen peroxide with benzyl thiol
Method: (§1) Catalytic activity of the compounds described herein can be determined via assessing the reduction of tert-butyl hydroxyperoxide and hydrogen peroxide with benzyl thiol for example as described in Example 1, herein. According to this embodiment, catalytic activity was compared by means of reaction half-life (t1/2), where the value reflects the time required to oxidize half of the thiol to its disulfide.
(§2) Diselenide 17, selenide 20 and spirodioxyselenurane 25 were prepared by literature procedures. NMR spectra were run in CDCl3 unless otherwise indicated. Chemical shifts for ^77Se and ^125Te NMR spectra are reported relative to dimethyl selenide and dimethyl telluride, respectively (δ 0.00). The spectra were recorded by using diphenyl diselenide in CDCl3 (δ 463 ppm) or selenium dioxide in D2O (δ 1302.6 ppm) for ^77Se NMR spectra, and diphenyl ditelluride in CDCl3 (δ 420.8 ppm) for ^125Te NMR spectra. Benzyl thiol was distilled prior to use and the concentrations of tert-butyl hydroperoxide and hydrogen peroxide were determined by iodometric analysis.
(§3) Glassware used in the measurement of catalytic activity (Example 9) was washed only with water followed by acetone, and was flame-dried prior to use. Contamination with traces of detergent or alkali produced abnormal kinetic results.
(§4) Catalytic activity of some of the compounds synthesized as described the foregoing Examples are described in the tables below, where the activity measured is in terms of comparability to selenoenzyme glutathione peroxidase. Reactions were performed with BnSH (0.029 M), the catalyst (0.0029 M) and either 56% TBHP (0.038 M), 38% TBHP (0.023 M) or 29% H2O2(0.040 M) in CH2Cl2-MeOH (95:5) at 18° C., except for entries 7, 8, 17 and 18, where the solvent was CH2Cl2-MeOH (4:1).

[2] = Catalytic activity of GPx mimetics: overall comparison of catalysts in words (both oxidants); settings: reduction of peroxides with BnSH; for catalytic activity compared to their selenium analogs 14 and 16: fastest reaction rates
Description: as §1, §4
In general, hydrogen peroxide was reduced faster than tert-butyl hydroperoxide in the presence of the selenium-based catalysts.

[3] = Catalytic activity of GPx mimetics: reduction of tert-butyl hydroperoxide with benzyl thiol
Method: as §1, §2, §3, §4

Structure (SMILES) | t1/2 (h), time required to oxidize half of the thiol to its disulfide [1] | catalytic activity compared to the parent cyclic seleninate ester 14 and spirodioxyselenurane 16 [2] | t1/2 (h), time required to oxidize half of the thiol to its disulfide [3] | melting point | catalytic activity compared to their selenium analogs 14 and 16 [2]
C1CO[Se]2(C1)CCCO2 [Compound 16, reference compound] | 0.2 h | – | – | – | –
c1ccc2c(c1)CO[Se]21OCc2ccccc21 [Compound 24, Spirodioxyselenurane] | 5.5 h | inferior catalysts | 62 h | – | –
O=C1O[Se]2(OC(=O)c3ccccc32)c2ccccc21 [Compound 25, Spirodioxyselenurane, reference compound] | 35 h | inferior catalysts | 113 h | – | –
O=C1O[Se](=O)c2ccccc21 (stereo not drawn) [Compound 22, Benzo-3-oxo-1,2-Oxaselenolane Se-Oxide] | 73 h | inferior catalysts | 252 h | – | –
Fc1ccc2c(c1)CO[Se]21OCc2cc(F)ccc21 [Compound 127, spirodioxyselenurane] | 16 h | – | 181 h | 189 to 191 °C | –
COc1ccc2c(c1)CO[Se]21OCc2cc(OC)ccc21 [Compound 126, spirodioxyselenurane] | 3.3 h | – | 39 h | 171 to 173 °C | –
O=[Te]1CCCO1 [Compound 27, 1,2-Oxatellurolane Te-oxide] | – | – | – | – | superior catalysts
O=[Se]1CCCO1 (stereo not drawn) [Compound 14, reference compound] | 18 h | – | – | – | –
O=[Se]1OCc2ccccc21 (stereo not drawn) [Compound 19, Benzo-1,2-oxaselenolane Se-Oxide] | 18 h | inferior catalysts | 162 h | – | –
O=[Se]1OCc2cc(F)ccc21 (stereo not drawn) [Compound 93, 5-fluorobenzo-1,2-oxaselenolane Se-oxide] | 39 h | – | 238 h | 141 to 142 °C | –
COc1ccc2c(c1)CO[Se]2=O (stereo not drawn) [Compound 91, 5-metboxybenzo-1,2-oxaselenolane Se-oxide] | 28 h | – | 81 h | – | –
C1CO[Te]2(C1)CCCO2 [Compound 29, Spirodioxytellurane] | – | – | – | – | superior catalysts
